Test results from US20160271118A1, “PHARMACEUTICAL COMPOSITIONS COMPRISING ANTIBACTERIAL AGENTS” (priority 2013, published 2016).
Read-outs that look alike come from different tables or passages of the source.

Tests used:
Format in all cases: cell-based, Acinetobacter baumannii
[1] = test system: A. baumannii NCTC 13302; test: Broth microdilution MIC (CLSI), A. baumannii NCTC 13302; conditions: for MIC: Acinetobacter baumannii, NCTC13302; for MIC of Sulbactam in combination of compound: compound at 4 mcg/ml; for MIC of Cefepime in combination of compound: compound at 8 mcg/ml
Procedure: (§1) The broth microdilution Minimum Inhibitory Concentration (MIC) studies were conducted as per the CLSI recommendations (Clinical and Laboratory Standards Institute (CLSI), Performance Standards for Antimicrobial Susceptibility Testing, 20th Informational Supplement, M 100-S20, Volume 30, No. 1, 2010). The media utilized was Brain Heart Infusion broth (BD, USA). In brief, 50 mcl of serial double dilutions of the antibacterial agents in Brain Heart Infusion media were dispensed in 96 well microtiter plate. 50 mcl of culture suspension was added to each pre dispensed drug dilution such that the final bacterial inoculum density was 2-8×10^5 CFU/ml. The plates were incubated for 20-24 hours at 35±2° C. and observed visually for growth or no growth based on the turbidity. Three specific compounds generally represented by a general Formula (I) were used and are as follows: • 1. (2S,5R)-7-oxo-N-[(3S)-pyrrolidin-3-yloxy]-6-(sulfooxy)-1,6-diazabicyclo[3.2.1]octane-2-carboxamide (Compound A),
(§2) The results of antibacterial activity of various compounds when used alone and in combinations according to the inventions are shown in Tables 1 and 2 respectively. The strains of A. baumannii used for the study were those which produced carbapenem hydrolyzing class D beta-lactamase enzymes (OXA 23, OXA 24 or OXA 27). […] In general, the MIC values of Sulbactam and Cefepime reduced when these were combined with Compounds A, B and C.

[2] = test system: A. baumannii NCTC 13304; test: Broth microdilution MIC (CLSI), A. baumannii NCTC 13304; conditions: for MIC: Acinetobacter baumannii, NCTC13304; for MIC of Sulbactam in combination of compound: compound at 4 mcg/ml; for MIC of Cefepime in combination of compound: compound at 8 mcg/ml
Procedure: as §1, §2

[3] = test system: A. baumannii; test: Broth microdilution MIC (CLSI), A. baumannii strains overall; conditions: used alone; for MIC: Acinetobacter baumannii, A. baumannii strains producing OXA 23, OXA 24 or OXA 27
Procedure: as §1, §2

[4] = test system: A. baumannii NCTC 13301; test: Broth microdilution MIC (CLSI), A. baumannii NCTC 13301; conditions: for MIC: Acinetobacter baumannii, NCTC13301; for MIC of Sulbactam in combination of compound: compound at 4 mcg/ml; for MIC of Cefepime in combination of compound: compound at 8 mcg/ml
Procedure: as §1, §2

[5] = compound alone, A. baumannii NCTC 13302 (OXA 51, OXA 24), read-out: MIC
[6] = A. baumannii NCTC 13302 (OXA 51, OXA 24)
[7] = compound alone, A. baumannii NCTC 13304 (OXA 51, OXA 27), read-out: MIC
[8] = A. baumannii NCTC 13304 (OXA 51, OXA 27)
[9] = compound alone, A. baumannii NCTC 13301 (OXA 51, OXA 23), read-out: MIC
[10] = A. baumannii NCTC 13301 (OXA 51, OXA 23)

| MIC [1, 5] [µg/mL] | MIC of Sulbactam in combination of compound [1, 6] [µg/mL] | MIC of Cefepime in combination of compound [1, 6] [µg/mL] | MIC [2, 7] [µg/mL] | MIC of Sulbactam in combination of compound [2, 8] [µg/mL] | MIC of Cefepime in combination of compound [2, 8] [µg/mL] | MIC [3] [µg/mL] | MIC [4, 9] [µg/mL] | MIC of Sulbactam in combination of compound [4, 10] [µg/mL] | MIC of Cefepime in combination of compound [4, 10] [µg/mL] | Structure (SMILES) | MIC [1] [µg/mL] | MIC [2] [µg/mL] | antibacterial activity against A. baumannii [3] | MIC [4] [µg/mL] |
| --- | --- | --- | --- | --- | --- | --- | --- | --- | --- | --- | --- | --- | --- | --- |
| > 128 | 4 | 16 | > 128 | 4 | 8 | > 128 | > 128 | 4 | 16 | O=C(NOC[C@@H]1CCCN1)[C@@H]1CC[C@@H]2CN1C(=O)N2OS(=O)(=O)O [Compound B, (2S,5R)-7-oxo-N-[(2S)-pyrrolidin-2-ylmethyloxy]-6-(sulfooxy)-1,6-diazabicyclo[3.2.1]octane-2-carboxamide] |  |  |  |  |
| > 128 | 8 | 16 | > 128 | 8 | 8 | > 128 | > 128 | 4 | 32 | O=C(NOC[C@@H]1CCCCN1)[C@@H]1CC[C@@H]2CN1C(=O)N2OS(=O)(=O)O [Compound C, (2S,5R)-7-oxo-N-[(2S)-piperidine-2-ylmethyloxy]-6-(sulfooxy)-1,6-diazabicyclo[3.2.1]octane-2-carboxamide] |  |  |  |  |
|  |  |  |  |  |  |  |  |  |  | CC1(C)[C@H](C(=O)O)N2C(=O)C[C@H]2S1(=O)=O [Sulbactam, reference compound] | 16 | 32 | poor antibacterial activity | 8 |
| > 32 |  |  | > 32 |  |  |  | 32 |  |  | C[C@@H](O)[C@H]1C(=O)N2C(C(=O)O)=C(S[C@@H]3CN[C@H](C(=O)N(C)C)C3)[C@H](C)[C@H]12 [Meropenem, reference compound] |  |  | poor antibacterial activity |  |
| > 128 | 8 | 16 | > 128 | 8 | 16 | > 128 | > 128 | 4 | 16 | O=C(NO[C@H]1CCNC1)[C@@H]1CC[C@@H]2CN1C(=O)N2OS(=O)(=O)O [Compound A, (2S,5R)-7-oxo-N-[(3S)-pyrrolidin-3-yloxy]-6-(sulfooxy)-1,6-diazabicyclo[3.2.1]octane-2-carboxamide] |  |  |  |  |
| 32 |  |  | 32 |  |  |  | > 32 |  |  | CO/N=C(\C(=O)N[C@@H]1C(=O)N2C(C(=O)[O-])=C(C[N+]3(C)CCCC3)CS[C@H]12)c1csc(N)n1 [Cefepime, reference compound] |  |  | poor antibacterial activity |  |
